Test: Placebo controlled, dose escalation pharmacokinetic study of oral (Z)-Endoxifen capsules (serum endoxifen; incl. accumulation ratios and dose linearity)
Format: in vivo, human
Set-up: Serum concentration, Maximum / Serum concentration, GeoMean / Serum concentration, Mean / Serum concentration, Median / terminal rate constant: unit not given here
Conditions: for AUC24hr / AUC to last time point / AUC(0-inf): in ng·h/mL
Source text: An objective of the study was to assess the safety and tolerability of oral (Z)-Endoxifen when administered […] orally as a capsule to healthy female volunteers. A secondary objective was to assess the pharmacokinetics of multiple doses of oral (Z)-Endoxifen in the subjects.
Generally, healthy female volunteers aged ≥18 years and ≤65 years were enrolled. 24 participants were enrolled in 3 cohorts and will be administered study drug orally. Three dose levels of orally administered (Z)-Endoxifen were investigated in 3 cohorts. In each cohort participants were randomized to receive an oral (Z)-Endoxifen or placebo in a blinded fashion. Enteric-resistant capsules used in the study were designed as delayed release capsules to resist rupture for at least 30 minutes, but typically, for about 2 hours, under gastric conditions and then open fully in intestinal fluid (DRCaps; Capsugel, a Lonza Company, USA). Enteric-resistant (Swedish Orange size Zero (0); Capsugel, USA) DRCaps capsules manually filled with 1, 2 or 4 mg of (Z)-endoxifen neat in compliance with GMP requirements were used. Placebo capsules contained microcrystalline cellulose an inert common capsule and tablet excipient.
Each cohort enrolled 8 participants, with 6 participants receiving (Z)-Endoxifen 1 mg capsules orally at 1 mg (Cohort 1), 2 mg (Cohort 2) or 4 mg (Cohort 3) doses and 2 participants receiving matching placebo capsules. In Cohort 1 (Dose Level=1 mg) two participants (sentinels) were dosed 24 hours prior to the remaining participants. One sentinel was dosed with (Z)-Endoxifen and the other with placebo. The remaining six participants in Cohort 1 were dosed as no safety concerns were identified in the sentinel participants. The non-sentinel participants in Cohort 1 were admitted to the clinical research facility at least one day later than the sentinels. There were no sentinels in Cohorts 2 and 3.
Participant engagement in this study was for a period of 56 days. These included a 28 day screening period, and a 7 day post treatment period for Pharmacokinetic (PK) sampling. There were two confinement periods, one at the beginning and one at the end of the dosing periods. Participants were confined to the clinical facility on Days-1 through to Day 2 and Days 21 and 22. If participants were to experience any clinically significant adverse events during the study, they would have been required to remain in the clinical facility for further observation at the discretion of the Principal Investigator (PI).
Healthy female volunteers were screened within 28 days prior to commencement of dosing. Participants were admitted to the clinical facility on Day-1 for up to 3 days. The first dose of (Z)-Endoxifen or placebo capsules was administered on Day 1. Following completion of all safety assessments and sampling for PK analyses, participants were discharged from the clinical facility on Day 2. The first dose on Day 1 was followed by a 6-day treatment free period (Days 2-7). Each participant returned to the clinical facility for PK blood draws and safety assessments during the treatment free period on study Days 4 and 6. On Day 8 participants commenced daily administration of (Z)-Endoxifen capsules or placebo capsules for 14 consecutive days (Days 8-21). Participants were supplied with study drug capsules and asked to self administer daily. Participants visited the clinical facility on Days 11, 14 and 17, prior to dose administration, for PK blood draws and safety assessments. On the morning of Day 21 each participant returned to the clinical facility prior to dose administration and were confined to the facility until Day 22 to allow for the collection of PK blood draws and safety assessments. The Day 21 dose was the last administration of study drug. Participants were discharged from the clinical facility on Day 22 and returned for PK blood draws and safety assessments on study Days 24, 26, and 28. […]

[1] = Day 1, dose 4 mg oral, Maximum, N 6
[2] = Day 1, dose 4 mg oral, Minimum, N 6
[3] = Day 21, dose 2 mg oral once daily, GeoMean, N 6
[4] = Day 21, dose 2 mg oral once daily, Maximum, N 6
[5] = Day 21, dose 2 mg oral once daily, Mean, N 6
[6] = Day 21, dose 2 mg oral once daily, Median, N 6
[7] = Day 21, dose 2 mg oral once daily, Minimum, N 6
[8] = Day 21, dose 4 mg oral once daily, GeoMean, N 6
[9] = Day 21, dose 4 mg oral once daily, Maximum, N 6
[10] = Day 21, dose 4 mg oral once daily, Mean, N 6
[11] = Day 21, dose 4 mg oral once daily, Median, N 6
[12] = Day 21, dose 4 mg oral once daily, Minimum, N 6

Compound: CC/C(=C(\c1ccc(O)cc1)c1ccc(OCCNC)cc1)c1ccccc1 [(Z)-Endoxifen, (Z)-4-(1-(4-(2-(methylamino)ethoxy)phenyl)-2-phenylbut-1-enyl) phenol]
- CL/F, Min (Day 1, 1 mg, N = 5): 1.35 L/h
- Cmax, Max (Day 1, 1 mg, N = 5): 12.0 ng/mL
- Cmax, Min (Day 1, 1 mg, N = 5): 7.0 ng/mL
- Kel, GeoMean (Day 1, 1 mg, N = 5): 0.015 h⁻¹
- Kel, Max (Day 1, 1 mg, N = 5): 0.018 h⁻¹
- Kel, Mean (Day 1, 1 mg, N = 5): 0.015 h⁻¹
- Kel, Median (Day 1, 1 mg, N = 5): 0.015 h⁻¹
- Kel, Min (Day 1, 1 mg, N = 5): 0.013 h⁻¹
- Thalf, GeoMean (Day 1, 1 mg, N = 5): 45.6 h
- Thalf, Max (Day 1, 1 mg, N = 5): 54.4 h
- Thalf, Mean (Day 1, 1 mg, N = 5): 46.1 h
- Thalf, Median (Day 1, 1 mg, N = 5): 47.2 h
- Thalf, Min (Day 1, 1 mg, N = 5): 37.5 h
- Tmax, Max (Day 1, 1 mg, N = 5): 8.08 h
- Tmax, Min (Day 1, 1 mg, N = 5): 2.0 h
- CL/F, GeoMean (Day 1, 2 mg, N 6): 1.85 L/h
- CL/F, Maximum (Day 1, 2 mg, N 6): 2.65 L/h
- CL/F, Mean (Day 1, 2 mg, N 6): 1.89 L/h
- CL/F, Median (Day 1, 2 mg, N 6): 1.83 L/h
- CL/F, Minimum (Day 1, 2 mg, N 6): 1.34 L/h
- Cmax, Maximum (Day 1, 2 mg, N 6): 22.0 ng/mL
- Cmax, Minimum (Day 1, 2 mg, N 6): 13.0 ng/mL
- Kel, GeoMean (Day 1, 2 mg, N 6): 0.015 h⁻¹
- Kel, Maximum (Day 1, 2 mg, N 6): 0.018 h⁻¹
- Kel, Mean (Day 1, 2 mg, N 6): 0.015 h⁻¹
- Kel, Median (Day 1, 2 mg, N 6): 0.016 h⁻¹
- Kel, Minimum (Day 1, 2 mg, N 6): 0.010 h⁻¹
- Thalf, GeoMean (Day 1, 2 mg, N 6): 47.7 h
- Thalf, Maximum (Day 1, 2 mg, N 6): 68.1 h
- Thalf, Mean (Day 1, 2 mg, N 6): 49.0 h
- Thalf, Median (Day 1, 2 mg, N 6): 44.0 h
- Thalf, Minimum (Day 1, 2 mg, N 6): 37.8 h
- Tmax, Minimum (Day 1, 2 mg, N 6): 3.00 h
- terminal rate constant (Day 1, dose 4 mg oral, GeoMean, N 6): 0.017
- Cmax [1]: 62.0 ng/mL
- Tmax [1]: 10.00 h
- apparent terminal half life (t½) [1]: 56.0 h
- terminal rate constant [1]: 0.022
- AUC24hr [1]: 1116
- AUC to last time point [1]: 3574
- AUC(0-inf) [1]: 4624
- terminal rate constant (Day 1, dose 4 mg oral, Mean, N 6): 0.017
- terminal rate constant (Day 1, dose 4 mg oral, Median, N 6): 0.017
- Cmax [2]: 14.0 ng/mL
- Tmax [2]: 3.00 h
- apparent terminal half life (t½) [2]: 31.6 h
- terminal rate constant [2]: 0.012
- AUC24hr [2]: 258
- AUC to last time point [2]: 691
- AUC(0-inf) [2]: 736
- CL/F, GeoMean (Day 21, 1 mg, N = 5): 2.32 L/h
- CL/F, Maximum (Day 21, 1 mg, N = 5): 4.03 L/h
- CL/F, Mean (Day 21, 1 mg, N = 5): 2.49 L/h
- CL/F, Median (Day 21, 1 mg, N = 5): 1.90 L/h
- CL/F, Minimum (Day 21, 1 mg, N = 5): 1.57 L/h
- Cmax, Maximum (Day 21, 1 mg, N = 5): 34.0 ng/mL
- Cmax, Minimum (Day 21, 1 mg, N = 5): 14.0 ng/mL
- Kel, GeoMean (Day 21, 1 mg, N = 5): 0.013 h⁻¹
- Kel, Maximum (Day 21, 1 mg, N = 5): 0.017 h⁻¹
- Kel, Mean (Day 21, 1 mg, N = 5): 0.014 h⁻¹
- Kel, Median (Day 21, 1 mg, N = 5): 0.014 h⁻¹
- Kel, Minimum (Day 21, 1 mg, N = 5): 0.011 h⁻¹
- Thalf, GeoMean (Day 21, 1 mg, N = 5): 51.7 h
- Thalf, Maximum (Day 21, 1 mg, N = 5): 65.8 h
- Thalf, Mean (Day 21, 1 mg, N = 5): 52.6 h
- Thalf, Median (Day 21, 1 mg, N = 5): 49.3 h
- Thalf, Minimum (Day 21, 1 mg, N = 5): 40.6 h
- Tmax, Maximum (Day 21, 1 mg, N = 5): 8.42 h
- Css (AUCtau/tau) [3]: 37.4 ng/mL
- terminal rate constant [3]: 0.016
- Cmax [4]: 65.0 ng/mL
- Css (AUCtau/tau) [4]: 49.1 ng/mL
- Tmax [4]: 6.05 h
- apparent terminal half life (t½) [4]: 50.8 h
- terminal rate constant [4]: 0.021
- AUC24hr [4]: 1177
- Css (AUCtau/tau) [5]: 38.0 ng/mL
- terminal rate constant [5]: 0.016
- Css (AUCtau/tau) [6]: 37.9 ng/mL
- terminal rate constant [6]: 0.015
- Cmax [7]: 35.0 ng/mL
- Css (AUCtau/tau) [7]: 29.8 ng/mL
- Tmax [7]: 2.00 h
- apparent terminal half life (t½) [7]: 33.0 h
- terminal rate constant [7]: 0.014
- AUC24hr [7]: 716
- Css (AUCtau/tau) [8]: 72.7 ng/mL
- terminal rate constant [8]: 0.016
- Cmax [9]: 178.0 ng/mL
- Css (AUCtau/tau) [9]: 126.4 ng/mL
- Tmax [9]: 10.00 h
- apparent terminal half life (t½) [9]: 54.3 h
- terminal rate constant [9]: 0.020
- AUC24hr [9]: 3034
- Css (AUCtau/tau) [10]: 85.1 ng/mL
- terminal rate constant [10]: 0.016
- Css (AUCtau/tau) [11]: 102.9 ng/mL
- terminal rate constant [11]: 0.015
- Cmax [12]: 42.0 ng/mL
- Css (AUCtau/tau) [12]: 25.7 ng/mL
- Tmax [12]: 2.00 h
- apparent terminal half life (t½) [12]: 34.0 h
- terminal rate constant [12]: 0.013
- AUC24hr [12]: 616

Reference: patent US12275684B2, “Methods for making and using endoxifen” (Atossa Therapeutics, Inc., priority 2017, dated 2025)
